US9593305B2, “Differentiation of pluripotent stem cells” (Janssen Biotech, Inc., priority 2008, dated 2017)

Assays:
[1] = test system: H1 human embryonic stem cells; assay: Step-wise differentiation, FACS for CXCR4 after step 1 (Example 16); assay type: cell-based; settings: 100 ng/ml GDF-8 with compound on first day, compared to activin A and Wnt3a
Experimental: (§1) The assay was initiated by aspirating the culture medium from each well and adding back an aliquot (0.5 ml) of test medium. Test conditions for the first step of differentiation were conducted over a three-day period, feeding daily by aspirating and replacing the medium from each well with fresh test medium. On the first day of assay, 100 ng/ml activin A (PeproTech; Cat #120-14) or 100 ng/ml GDF-8 (R&D Systems, Cat #788-G8) was added to respective assay wells where each growth factor was diluted into RPMI-1640 medium (Invitrogen; Cat #: 22400) with 2% Albumin Bovine Fraction V, Fatty Acid Free (FAF BSA) (Proliant Inc. Cat #: SKU 68700), and 20 ng/ml Wnt3a (R&D Systems; Cat #1324-WN/CF). On the second day of assay, 100 ng/ml activin A or 100 ng/ml GDF-8 was diluted into RPMI-1640 medium supplemented with 2% FAF BSA without Wnt3a. In some test samples using GDF-8, Wnt3a was replaced with a small molecule compound, added only on the first day of definitive endoderm differentiation. These small molecules included Compound 19 (2.5 μM in assay), Compound 202 (2.5 μM in assay), Compound 40 (2.5 μM in assay), or a commercially available GSK3 inhibitor BIO (0.5 μM in assay) (EMD Chemicals, Inc.; Cat #361550). At the conclusion of the first step of differentiation, cells from some wells were harvested for flow cytometry analysis to evaluate levels of CXCR4, a marker of definitive endoderm formation. Additional wells were harvested for RT-PCR analysis to measure other markers of differentiation.
Cells for FACS analysis were blocked in a 1:5 solution of 0.5% human gamma-globulin (Sigma; Cat#G-4386) in PBS (Invitrogen; Cat #14040-133): BD FACS staining buffer—BSA (BD; Cat #554657) for 15 minutes at 4° C. Cells were then stained with antibodies for CD9 PE (BD; Cat #555372), CD99 PE (Caltag; #MHCD9904) and CXCR4 APC(R&D Systems; Cat#FAB 173A) for 30 minutes at 4° C. After a series of washes in BD FACS staining buffer, the cells were stained for viability with 7-AAD (BD; Cat #559925) and run on a BD FACSArray. […]

[2] = test system: H1 human embryonic stem cells; assay: Step-wise differentiation, high content analysis of SOX17, cell number, insulin, glucagon (Example 16); assay type: cell-based; settings: GDF-8 with compound in step 1, relative to activin A and Wnt3a
Experimental: as §1
Step 5 of the differentiation protocol was carried out over seven days in DMEM-high glucose with 0.1% Albumax, 0.5× Insulin-Transferrin-Selenium, and 1 μM Alk 5 inhibitor. […]
Imaging was performed using an IN Cell Analyzer 1000 (GE Healthcare) utilizing the 51008bs dichroic for cells stained with Hoechst 33342 and Alexa Fluor 488. […] Segmentation for the nuclei was determined based on gray-scale levels (baseline range 100-300) and nuclear size. Averages and standard deviations were calculated for each replicate data set. […]

O=C1Nc2cc(Br)ccc2/C1=C1/Nc2ccccc2/C1=N\O [GSK3 inhibitor BIO, reference compound]
percentage of CXCR4 positive cells after step 1 [1]: equivalent or slightly higher percentage of CXCR4 positive cells | relative cell numbers recovered through differentiation step 5 [2]: decrease in cell number
